According to ChEMBL document CHEMBL3885861, “Open TG-GATES”:

Organism: Rattus norvegicus
Experiment: Open TG-GATES - Regimen: Daily Repeat
Format: toxicity, organism-based, Sprague-Dawley
Parameters: regimen Daily Repeat, gender Male, age 6 weeks
Settings: in vivo, po, 0 mg/kg, route gavage, dose level Control; for APTT / Bas / Eos / Fbg / Hb / Ht / Lym / MCH / MCHC / MCV / Mono / Neu / PT / Plat / RBC / Ret / WBC: tissue Blood; for KIDNEY_L / KIDNEY_R / KIDNEY_TOTAL: tissue Kidney; for LIVER: tissue Liver; for A/G / ALP / ALT / AST / BUN / CRE / Ca / Cl / DBIL / GLC / IP / K / LDH / Na / PL / RALB / TBIL / TC / TG / TP / gamma-GTP: tissue Plasma

`COc1ccc2c(c1)c(CC(=O)O)c(C)n2C(=O)c1ccc(Cl)cc1` [INDOMETHACIN] gave a TERMINAL_BW (72 h, time 3 day) of 239.9 g, an APTT (72 h, time 3 day) of 17 s and a Bas (72 h, time 3 day) of 0%. For the same molecule, the Eos (72 h, time 3 day) was 0.8%, the Fbg (72 h, time 3 day) was 211.8 mg/dL and the Hb (72 h, time 3 day) was 13.4 g/dL. It also gave a Ht (72 h, time 3 day) of 40.3%, a Lym (72 h, time 3 day) of 81.4% and an MCH (72 h, time 3 day) of 21.4 pg. It also gave an MCHC (72 h, time 3 day) of 33.1%, an MCV (72 h, time 3 day) of 64.6 fL and a Mono (72 h, time 3 day) of 8%. It also gave a Neu (72 h, time 3 day) of 10.2%, a PT (72 h, time 3 day) of 11.2 s and a Plat (72 h, time 3 day) of 122 x10_4/uL. For the same molecule, the RBC (72 h, time 3 day) was 625.2 x10_4/ul, the Ret (72 h, time 3 day) was 7.6% and the WBC (72 h, time 3 day) was 117.2 x10_2/uL. For the same molecule, the KIDNEY_L (72 h, time 3 day) was 1 g, the KIDNEY_R (72 h, time 3 day) was 1.1 g and the KIDNEY_TOTAL (72 h, time 3 day) was 2.1 g. For the same molecule, the LIVER (72 h, time 3 day) was 11.9 g, the A/G (72 h, time 3 day) was 2.1 and the ALP (72 h, time 3 day) was 1154.8 IU/L. For the same molecule, the ALT (72 h, time 3 day) was 33.2 IU/L, the AST (72 h, time 3 day) was 60 IU/L and the BUN (72 h, time 3 day) was 15.4 mg/dL. It also gave a CRE (72 h, time 3 day) of 0.6 mg/dL, a Ca (72 h, time 3 day) of 10.5 mg/dL and a Cl (72 h, time 3 day) of 107 meq/L. It also gave a DBIL (72 h, time 3 day) of 0.032 mg/dL, a GLC (72 h, time 3 day) of 201.8 mg/dL and an IP (72 h, time 3 day) of 7.4 mg/dL. It also gave a K (72 h, time 3 day) of 4.8 meq/L, an LDH (72 h, time 3 day) of 95.2 IU/L and a Na (72 h, time 3 day) of 139.6 meq/L. It also gave a PL (72 h, time 3 day) of 144.4 mg/dL, an RALB (72 h, time 3 day) of 3.9 g/dL and a TBIL (72 h, time 3 day) of 0.4 mg/dL. It also gave a TC (72 h, time 3 day) of 74.2 mg/dL, a TG (72 h, time 3 day) of 86.8 mg/dL and a TP (72 h, time 3 day) of 5.7 g/dL. It also gave a gamma-GTP (72 h, time 3 day) of 1 IU/L, a TERMINAL_BW ([…], time 7 day) of 269.3 g and a TERMINAL_BW ([…], time 14 day) of 339.4 g. The TERMINAL_BW ([…], time 28 day) was 433.9 g, the APTT ([…], time 7 day) was 16.5 s and the Bas ([…], time 7 day) was 0%. It also gave an Eos ([…], time 7 day) of 1%, a Fbg ([…], time 7 day) of 223.6 mg/dL and a Hb ([…], time 7 day) of 14.1 g/dL. It also gave a Ht ([…], time 7 day) of 42.4%, a Lym ([…], time 7 day) of 82% and an MCH ([…], time 7 day) of 20.9 pg. For the same molecule, the MCHC ([…], time 7 day) was 33.3%, the MCV ([…], time 7 day) was 62.8 fL and the Mono ([…], time 7 day) was 6.8%. For the same molecule, the Neu ([…], time 7 day) was 10%, the PT ([…], time 7 day) was 11.8 s and the Plat ([…], time 7 day) was 106.3 x10_4/uL. For the same molecule, the RBC ([…], time 7 day) was 675 x10_4/ul, the Ret ([…], time 7 day) was 5.7% and the WBC ([…], time 7 day) was 126.2 x10_2/uL. It also gave an APTT ([…], time 14 day) of 16.7 s, a Bas ([…], time 14 day) of 0% and an Eos ([…], time 14 day) of 0.6%. It also gave a Fbg ([…], time 14 day) of 228.8 mg/dL, a Hb ([…], time 14 day) of 13.9 g/dL and a Ht ([…], time 14 day) of 41.7%. For the same molecule, the Lym ([…], time 14 day) was 84.2%, the MCH ([…], time 14 day) was 20.1 pg and the MCHC ([…], time 14 day) was 33.4%. For the same molecule, the MCV ([…], time 14 day) was 60.3 fL, the Mono ([…], time 14 day) was 5% and the Neu ([…], time 14 day) was 10.4%. It also gave a PT ([…], time 14 day) of 11.8 s, a Plat ([…], time 14 day) of 110.6 x10_4/uL and an RBC ([…], time 14 day) of 691.2 x10_4/ul. For the same molecule, the Ret ([…], time 14 day) was 5.1%, the WBC ([…], time 14 day) was 148.4 x10_2/uL and the APTT ([…], time 28 day) was 15.3 s. It also gave a Bas ([…], time 28 day) of 0%, an Eos ([…], time 28 day) of 0.8% and a Fbg ([…], time 28 day) of 256.8 mg/dL. It also gave a Hb ([…], time 28 day) of 14.6 g/dL, a Ht ([…], time 28 day) of 44.4% and a Lym ([…], time 28 day) of 86.8%. It also gave an MCH ([…], time 28 day) of 18.5 pg, an MCHC ([…], time 28 day) of 32.9% and an MCV ([…], time 28 day) of 56.1 fL. For the same molecule, the Mono ([…], time 28 day) was 4.4%, the Neu ([…], time 28 day) was 7.8% and the PT ([…], time 28 day) was 11.8 s. For the same molecule, the Plat ([…], time 28 day) was 112.3 x10_4/uL, the RBC ([…], time 28 day) was 792.2 x10_4/ul and the Ret ([…], time 28 day) was 3.2%. The WBC ([…], time 28 day) was 153.4 x10_2/uL, the KIDNEY_L ([…], time 7 day) was 1.2 g and the KIDNEY_R ([…], time 7 day) was 1.2 g. The KIDNEY_TOTAL ([…], time 7 day) was 2.4 g, the KIDNEY_L ([…], time 14 day) was 1.3 g and the KIDNEY_R ([…], time 14 day) was 1.3 g. For the same molecule, the KIDNEY_TOTAL ([…], time 14 day) was 2.6 g, the KIDNEY_L ([…], time 28 day) was 1.5 g and the KIDNEY_R ([…], time 28 day) was 1.5 g. It also gave a KIDNEY_TOTAL ([…], time 28 day) of 3 g, an LIVER ([…], time 7 day) of 13.2 g and an LIVER ([…], time 14 day) of 16 g. For the same molecule, the LIVER ([…], time 28 day) was 19.6 g, the A/G ([…], time 7 day) was 2 and the ALP ([…], time 7 day) was 925.4 IU/L. For the same molecule, the ALT ([…], time 7 day) was 33 IU/L, the AST ([…], time 7 day) was 63.2 IU/L and the BUN ([…], time 7 day) was 18.4 mg/dL. The CRE ([…], time 7 day) was 0.5 mg/dL, the Ca ([…], time 7 day) was 10.7 mg/dL and the Cl ([…], time 7 day) was 106.8 meq/L. The DBIL ([…], time 7 day) was 0.012 mg/dL, the GLC ([…], time 7 day) was 202.2 mg/dL and the IP ([…], time 7 day) was 8.3 mg/dL. The K ([…], time 7 day) was 5 meq/L, the LDH ([…], time 7 day) was 97.4 IU/L and the Na ([…], time 7 day) was 139 meq/L. The PL ([…], time 7 day) was 144.8 mg/dL, the RALB ([…], time 7 day) was 4 g/dL and the TBIL ([…], time 7 day) was 0.3 mg/dL. It also gave a TC ([…], time 7 day) of 69.2 mg/dL, a TG ([…], time 7 day) of 126.8 mg/dL and a TP ([…], time 7 day) of 6.1 g/dL. The gamma-GTP ([…], time 7 day) was 0.6 IU/L, the A/G ([…], time 14 day) was 1.8 and the ALP ([…], time 14 day) was 780.8 IU/L. It also gave an ALT ([…], time 14 day) of 30.6 IU/L, an AST ([…], time 14 day) of 60.6 IU/L and a BUN ([…], time 14 day) of 19.8 mg/dL. It also gave a CRE ([…], time 14 day) of 0.6 mg/dL, a Ca ([…], time 14 day) of 10.4 mg/dL and a Cl ([…], time 14 day) of 105.6 meq/L. The DBIL ([…], time 14 day) was 0.012 mg/dL, the GLC ([…], time 14 day) was 201.2 mg/dL and the IP ([…], time 14 day) was 8.5 mg/dL. For the same molecule, the K ([…], time 14 day) was 4.8 meq/L, the LDH ([…], time 14 day) was 82.6 IU/L and the Na ([…], time 14 day) was 138.2 meq/L. For the same molecule, the PL ([…], time 14 day) was 147.6 mg/dL, the RALB ([…], time 14 day) was 3.9 g/dL and the TBIL ([…], time 14 day) was 0.3 mg/dL. For the same molecule, the TC ([…], time 14 day) was 72.4 mg/dL, the TG ([…], time 14 day) was 130.4 mg/dL and the TP ([…], time 14 day) was 6.2 g/dL. For the same molecule, the gamma-GTP ([…], time 14 day) was 1.6 IU/L.
